{
  "source": "patent US6774128B2",
  "about": "“Methods for prevention and treatment of gastrointestinal disorders” (Johns Hopkins University, priority 2000, dated 2004)",
  "key": {"pyloric sphincter muscle": {"system": "pyloric sphincter muscle", "assay": "Organ bath physiology: EFS-evoked NO-dependent NANC relaxation of ex vivo pylori", "set-up": "species or system mouse"}, "[1]": {"system": "STZ-diabetic and NOD-diabetic mice", "assay": "Gastric emptying of phenol red-labeled liquid meal in diabetic mice", "type": "in vivo, mouse", "settings": "for gastric emptying (20% dextrose): NOD-diabetic and STZ-diabetic mice after 1 week of insulin treatment; for t½ for gastric emptying: 1 mg/kg intraperitoneal 20 minutes before", "procedure": "Animals. Mice were allowed free access to food and water except when fasted, as indicated for experiments. Wild-type mice (C57BL/6) were purchased from The Jackson Laboratory (Bar Harbor, Me., USA). nNOS^−/− mice were obtained following targeted genomic deletion of nNOS (15) and have the genetic background of C57BL/6 mice (28). For STZ-induced diabetes, adult male mice (C57BL/6) were injected intraperitoneally with a single dose of STZ (200 mg/kg in 0.1 M sodium citrate) as described elsewhere (29), whereas control mice were injected with an equal volume of vehicle (sodium citrate). STZ-treated mice were used for experiments 8 weeks after STZ injection. […]; Boehringer Mannheim, Indianapolis, Ind., USA). The average serum glucose levels for wild-type animals and the STZ diabetic mice 8 weeks after injection were 99 mg/dL and 388 mg/dL, respectively (Table 1). Adult male nonobese diabetic (NOD/LtJ [NOD]) mice were obtained at 8-10 weeks of age (The Jackson Laboratory). Serum glucose levels were also monitored weekly with the Accu-Check monitor. NOD-prediabetic mice and NOD-diabetic mice had average serum glucose levels of 88 mg/dL and 232 mg/dL, respectively (Table 1). For the indicated experiments, NOD-prediabetic mice were sacrificed at 10 weeks of age after serum glucose levels were confirmed, whereas NOD-diabetic mice were sacrificed at 30-32 weeks of age after elevated serum glucose levels were confirmed.\n(§1) Insulin treatment was given using LinBit, a sustained-release insulin implant (0.1 U/d/implant; LinShin Canada Inc., Toronto, Ontario, Canada). After brief anesthesia with diethyl echer, the insulin implant was quickly immersed in Betadine solution (McKesson, San Francisco, Calif., USA) and implanted subcutaneously with a 12-gauge needle. Serum glucose levels were monitored, and insulin-treated animals were used for experiments after 12 hours or 1 week of insulin therapy, as indicated. The serum glucose levels after 1 week of insulin treatment are shown (Table 1), as are the serum glucose levels after 12 hours of insulin treatment (see FIG. 2b).\nAs indicated, insulin-treated diabetic mice were treated with the nNOS inhibitor 7-nitroindazole (7-NI; Lancaster, Wyndham, N.H., USA) by two intraperitoneal injections (50 mg/kg) of a suspension in sesame oil (Sigma Chemical Co., St. Louis, Miss., USA) given 24 hours and 30 minutes before determination of gastric emptying. […] For all experiments, control animals were similarly injected with vehicle (either sesame oil or water).\nGastric emptying. Gastric emptying of liquids was determined as described previously (30). For any experiments using diabetic mice, serum glucose levels of all animals were confirmed immediately before monitoring gastric emptying. Adult mice were sedated briefly (<30 seconds) with diethyl ether. Mice fully recovered from sedation in less than 1 minute. During brief sedation, oral-gastric intubation was accomplished with a 21-gauge needle fitted with a thin plastic catheter (8 cm in length). Then, 0.2 mL of 1 mg/mL phenol red-labeled 20% dextrose (or other solution, if indicated) was instilled into the stomach. Mice were placed in clean, empty cages until the time of sacrifice. At the indicated time (0-120 minutes), mice were rapidly sacrificed by cervical dislocation and the stomach was excised. The duodenum was ligated, followed by transverse resection of the lower esophagus, and the stomach was removed from the body cavity. Excised stomachs were homogenized with a polytron (Brinkmann, Westbury, N.Y., USA) homogenizer in 3 mL of 95% ethyl alcohol. After centrifugation (40,000 g for 20 minutes), an aliquot of the supernatant was used to determine phenol red content. Standard curve was constructed and found to be linear over the range of 1-20 microgram of phenol red. Phenol red content was monitored at 410 nm, at which a single peak of absorbance was observed when extracted with ethanol. […]"}, "nNOS [2]": {"system": "nNOS", "assay": "Immunohistochemistry of nNOS protein expression in pyloric myenteric neurons", "type": "in vivo, mouse", "settings": "NOD-diabetic and STZ-diabetic mice, insulin treatment (1 week)", "procedure": "as §1\nImmunohistochemistry. For nondiabetic studies, wild-type animals or 10-week-old NOD-prediabetic animals were used. For diabetic studies, we used animals 8 weeks after STZ injection (STZ diabetic) or 30-week-old NOD mice (NOD-diabetic). Pylori or other tissues were dissected and immediately imbedded (Tissue-Tek OCT 4583; Sakura Finetek Inc., Torrence, Calif., USA) and placed in dry ice and allowed to freeze. Routine sections (10 micrometer) were cut using a cryostat (−19° C.; Leica Microm, Allendale, N.J., USA). For immunostaining, slides were fixed for 5 minutes in 4.0% paraformaldehyde, washed in PBS, and permeablized with 0.1% Triton X-100 in PBS. […]"}, "nNOS mRNA": {"system": "nNOS mRNA", "assay": "In situ hybridization of nNOS mRNA in pyloric myenteric neurons", "type": "in vivo, mouse", "settings": "NOD-diabetic and STZ-diabetic mice, insulin treatment (1 week)", "procedure": "as §1\nIn situ hybridization. In situ hybridization for nNOS was performed as described previously (31,32)."}, "nNOS [3]": {"system": "nNOS", "assay": "Western blot analysis of nNOS protein expression in intestinal tissues", "type": "in vivo, mouse", "settings": "NOD-diabetic mice, insulin treatment (1 week)", "procedure": "as §1\nWestern blot analysis. Mouse tissues were homogenized in ice-cold buffer containing 50 mM Tris (pH 7.4, 25° C.), 100 mM NaCl, 1 mM EGTA, and protease inhibitors (4 microgram/mL leupeptin, 2 microgram/mL antipain, 2 microgram/mL pepstatin, and 1 mM PMSF). After centrifugatin (1.5 minutes, 16,000 g), the supernatants were collected and protein content was determined (Coomassie protein assay; Pierce Chemical Co., Rockville, Ill., USA). Samples (50 microgram protein) were subjected to SDS-PAGE (4-12% gradient gel; Bis-tris NuPage; Novex, San Diego, Calif., USA) and then transferred to PVDF membranes (Immobilon-P; Millipore Corp., Bedford, Mass., USA). […]"}, "[4]": {"settings": "wild-type pylori precontracted with 0.1 micromolar SP, inhibitor 0.1 mM"}},
  "note": "Entries after “also recorded” stand apart in the source; their conditions may differ. Read-outs that look alike come from different tables or passages of the source.",
  "data": [
    {"compound": "retrodotoxin [TTX]", "values": [
      {"measurement": "EFS-evoked NANC relaxation", "setting": "pyloric sphincter muscle", "result": "completely blocked"}
    ]},
    {"compound": "insulin", "values": [
      {"measurement": "gastric emptying (20% dextrose)", "setting": "[1]", "result": "restored to normal"},
      {"measurement": "gastric emptying (20% dextrose)", "setting": "[1]; listed as Insulin", "result": "reverses delayed gastric emptying"},
      {"measurement": "t½ of gastric emptying", "setting": "[1]; STZ-diabetic mice after insulin treatment for 12 hours (subcutaneous implant), sham STZ-diabetic 60, wild-type 36", "result": 54, "unit": "min"},
      {"measurement": "EFS-evoked NANC relaxation", "setting": "pyloric sphincter muscle; pylori of NOD-diabetic mice after insulin treatment (1 week)", "result": "partially restores NANC relaxation"},
      {"measurement": "EFS-evoked NANC relaxation", "setting": "pyloric sphincter muscle; pylori of STZ-diabetic mice after insulin treatment (1 week)", "result": "restores NANC relaxation"},
      {"measurement": "nNOS protein expression in pyloric myenteric neurons", "setting": "nNOS [2]", "result": "reverse the loss of nNOS expression; also recorded: near normal levels"},
      {"measurement": "nNOS mRNA expression in pylori", "setting": "nNOS mRNA", "result": "substantially restores"},
      {"measurement": "nNOS protein expression (Western blot) in intestinal regions", "setting": "nNOS [3]", "result": "fully reversible"},
      {"measurement": "nNOS protein expression (Western blot) in intestinal regions", "setting": "nNOS [3]; listed as Insulin", "result": "completely reverses the loss of nNOS protein"}
    ]},
    {"compound": "NC(=NCCC[C@H](N)C(=O)O)N[N+](=O)[O-]", "note": "[L-NNA, N-nitro-[.-arginine]", "values": [
      {"measurement": "EFS-evoked NANC relaxation", "setting": "pyloric sphincter muscle; [4]", "result": "blocked"}
    ]},
    {"compound": "CCCc1nn(C)c2c(=O)[nH]c(-c3cc(S(=O)(=O)N4CCN(C)CC4)ccc3OCC)nc12", "note": "[sildenafil, 5-[2-ethoxy-5-(4-methylpiperazin-1-ylsulphonyl)phenyl]-1-methyl-3-n-propyl-1,6-dihydro-7H-pyrazolo[4,3d]pyrimidin-7-one]", "values": [
      {"measurement": "effect on delayed gastric emptying", "setting": "[1]; STZ-diabetic and NOD-diabetic mice, sildenafil 1 mg/kg", "result": "reverses the delayed gastric emptying; also recorded: reveres delayed gastric emptying"},
      {"measurement": "t½ for gastric emptying", "setting": "[1]; sildenafil-treated NOD-diabetic mice", "result": 36, "unit": "min"},
      {"measurement": "t½ for gastric emptying", "setting": "[1]; sildenafil-treated STZ-diabetic mice", "result": 30, "unit": "min"}
    ]},
    {"compound": "O=[N+]([O-])c1cccc2cn[nH]c12", "note": "[Compound 7-NI, 7-nitroindazole]", "values": [
      {"measurement": "gastric emptying at 30 minutes", "setting": "[1]; insulin-treated (1 week) STZ-diabetic and NOD-diabetic mice, 7-NI 50 mg/kg intraperitoneal, 24 hours and 30 minutes before", "result": "reverses the restoration of normal gastric emptying; also recorded: delays gastric emptying"},
      {"measurement": "NANC relaxation", "setting": "pyloric sphincter muscle; pylori of insulin-treated diabetic mice, in the presence of 0.1 mM 7-NI", "result": "completely blocked"},
      {"measurement": "EFS-evoked NANC relaxation", "setting": "pyloric sphincter muscle; [4]", "result": "blocked"}
    ]}
  ]
}
